“And” between values parts separate entries of the source, which are not always exact repeats. Equal values may be shown once.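 48-hour exposure; five concentrations; linearly interpolated endpoints. Abbreviation: GI50, concentration required for 50% inhibition of growth. Definition used: TGI = concentration required for complete inhibition of growth.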 Where a SMILES comes first, the peptide text is derived from it.
Legend:
Experiment in all cases: NCI tumour cell line growth inhibition, 48 h
SK-MEL-5 melanoma = test system: SK-MEL-5 melanoma
MOLT-4 leukemia = test system: MOLT-4 leukemia
SK-OV-3 ovarian = test system: SK-OV-3 ovarian
UACC-257 melanoma = test system: UACC-257 melanoma
SNB-19 CNS = test system: SNB-19 CNS
SF-295 CNS = test system: SF-295 CNS
NCI-H460 lung = test system: NCI-H460 lung
HT29 colon = test system: HT29 colon
SK-MEL-28 melanoma = test system: SK-MEL-28 melanoma
RXF 393 renal = test system: RXF 393 renal

Compound | GI50 (SK-MEL-5 melanoma) [µM] | TGI (SK-MEL-5 melanoma) | GI50 (MOLT-4 leukemia) [µM] | TGI (MOLT-4 leukemia) | GI50 (SK-OV-3 ovarian) [µM] | TGI (SK-OV-3 ovarian) | GI50 (UACC-257 melanoma) [µM] | TGI (UACC-257 melanoma) [µM] | GI50 (SNB-19 CNS) | TGI (SNB-19 CNS) | GI50 (SF-295 CNS) [µM] | TGI (SF-295 CNS) | GI50 (NCI-H460 lung) | TGI (NCI-H460 lung) [µM] | GI50 (HT29 colon) [µM] | TGI (HT29 colon) | GI50 (SK-MEL-28 melanoma) [µM] | TGI (SK-MEL-28 melanoma) | GI50 (RXF 393 renal) [µM] | TGI (RXF 393 renal)
C=C1C(=O)O[C@H]2[C@H]1CC/C(Cn1cc(Cn3ccc4ccccc43)nn1)=C\CC[C@@]1(C)O[C@@H]21 | 1.97 | 4.38 µM | 1.48 | 5.11 µM | 16 | 30.1 µM | 2.04 | 4.41 | 3.88 µM | 15.7 µM | 7.87 | 21.3 µM | 5.66 µM | 19.7 | 1.7 | 3.27 µM | 1.67 | 3.25 µM | 1.41 | 2.82 µM
COC(=O)C(C(=O)C(=O)Nc1ccccc1C(C)=O)c1nc2ccc(Cl)cc2[nH]c1=O (centres undefined) |  | > 100 µM |  | > 100 µM |  | > 100 µM |  | > 100 |  | > 100 µM |  | > 100 µM |  | > 100 |  | > 100 µM |  | > 100 µM |  | > 100 µM
CC(=O)O[C@H]1C(=O)O[C@@H]2C[C@H]3C(C)=CC(=O)[C@@H](O)[C@]3(C)[C@H]3[C@@]4(O)OC[C@]32[C@@H]1[C@@H](C)[C@H]4O | < 0.01 | 0.0287 µM and 0.052 µM | < 0.01 |  | 0.237 | 4.04 µM and 3.35 µM | 0.0322 | 0.137 | 0.0138 µM and 0.0382 µM | 0.0995 µM and 0.135 µM | 0.034 | 0.291 µM and 0.206 µM | 0.0136 µM and 0.0427 µM | 0.187 | 0.0374 | 1.38 µM and 1.26 µM | < 0.0104 | 0.0577 µM and 0.142 µM | 0.0481 | 0.503 µM and 0.108 µM
O=C(O)c1ccc(O)c(N=Nc2cc(S(=O)(=O)O)c3ccccc3c2O)c1 |  | > 100 µM |  | > 100 µM |  | > 10 µM |  | > 10 |  | > 100 µM |  | > 10 µM |  | > 100 |  | > 100 µM |  | > 100 µM |  | > 100 µM
CNNCc1ccc(C(=O)NC(C)C)cc1 | > 500 | > 500 µM | > 500 | 426 µM and > 500 µM |  | > 500 µM | > 500 | > 500 |  | > 500 µM |  | > 500 µM |  | > 500 |  | > 500 µM |  | > 500 µM | > 500 | > 500 µM
C[C@@H](CO)OCOCc1ccccc1 |  | > 100 µM |  | > 100 µM |  | > 100 µM |  | > 100 |  | > 100 µM |  | > 100 µM |  | > 100 |  | > 100 µM |  | > 100 µM |  | > 100 µM
Nc1ncnc(NC2C=C(CO)C(O)C2O)c1[N+](=O)[O-] (centres undefined) |  | > 100 µM |  | > 100 µM |  | > 100 µM |  | > 100 |  | > 100 µM |  | > 100 µM |  | > 100 |  | > 100 µM |  | > 100 µM |  | > 100 µM
COC(=O)C1=CN=C(C(=O)OC)NN1 |  | > 100 µM |  | > 100 µM |  | > 100 µM |  | > 100 |  | > 100 µM |  | > 100 µM |  | > 100 |  | > 100 µM |  | > 100 µM |  | > 100 µM
COc1ccc(N(CC(=O)NCCC[Te]c2ccccc2)C(=O)CCSC2=C(C)C(=O)c3ccccc3C2=O)cc1 | 1.56 | 2.96 µM | 0.911 |  | 2.14 | 4.67 µM | 2.56 | 6.51 | 2.91 µM | 12.1 µM | 0.232 | 0.704 µM | 0.31 µM | 0.948 | 1.95 | 7.03 µM | 2.48 | 5.87 µM | 2.07 | 4.47 µM
Cc1c(C(=O)CC(=O)C(=O)Nc2ccc(Cl)c(Cl)c2)[n+](=O)c2ccccc2n1[O-] |  | 43.9 µM |  | 44.5 µM |  | > 100 µM |  | 34.5 |  | > 100 µM |  | > 100 µM |  | 57.1 |  | 74.5 µM |  | > 100 µM |  | 92.2 µM
CC(C)CC(NC(=O)C(CC(C)C)NC(=O)C(Cc1cnc[nH]1)NC(=O)C(C)NC(=O)C(NC(=O)C(C)NC(=O)C(Cc1c[nH]c2ccccc12)NC(=O)C(CCC(=O)O)NC(=O)C(N)Cc1ccccc1)C(C)C)C(N)=O (centres undefined) (H-FEWAVAHLL-NH2; configuration not given here) |  | > 12.5 µM | > 100 | > 100 µM | > 100 | > 100 µM | > 100 | > 100 |  | > 100 µM | > 100 | > 100 µM | > 100 µM | > 100 | > 100 | > 100 µM |  | > 100 µM | > 100 | > 100 µM
Cc1ccccc1NC(=O)C(=O)C(c1cnc2ccc([N+](=O)[O-])cc2n1)[N+](=O)[O-] (centres undefined) |  | > 100 µM |  | > 100 µM |  | > 100 µM |  | > 100 |  | > 100 µM |  | > 100 µM |  | > 100 |  | > 100 µM |  | > 100 µM |  | > 100 µM
O=C1OCc2c1cc(F)cc2[N+](=O)[O-] | > 100 | > 100 µM | > 100 | > 100 µM | > 100 | > 100 µM | > 100 | > 100 | > 100 µM | > 100 µM | > 100 | > 100 µM | > 100 µM | > 100 | > 100 | > 100 µM | > 100 | > 100 µM | > 100 | > 100 µM
COc1ccc(/C(C)=C(\c2ccc(Cl)cc2)c2ccc(OCCN3CCCC3)cc2)cc1F | 4.1 | 7.78 µM | 3.48 | 8.28 µM | 4.18 | 7.86 µM | 0.872 | 3.2 | 3.87 µM | 7.41 µM | 2.92 | 6.25 µM | 2.1 µM | 5.29 | 0.724 | 3.47 µM | 3.13 | 6.27 µM | 3.19 | 6.49 µM
O=[N+]([O-])c1cc(CCl)ccc1CCl |  | 11.5 µM |  | 12.6 µM |  | 26 µM |  | > 20.1 |  | 3.8 µM |  | 19.7 µM |  | > 39.3 |  | 3.22 µM |  | 5.01 µM |  | 1.65 µM
Cc1cccc2c(N=Nc3ccc(S(N)(=O)=O)cc3)c(O)[nH]c12 | > 25 | > 25 µM | > 25 | > 25 µM | > 25 | > 25 µM | > 25 | > 25 | > 25 µM | > 25 µM | > 25 | > 25 µM | > 25 µM | > 25 | > 25 | > 25 µM | > 25 | > 25 µM | > 25 | > 25 µM

— PubChem BioAssay (NCI)
